The term EC50 denotes the concentration at which the effect is half-maximal.

The values that follow come from patent publication US9138434B2, “Octahydrothienoquinoline derivative, pharmaceutical composition comprising derivative, and use of these” (KISSEI PHARMACEUTICAL CO., LTD., priority 2011, dated 2015).

Assay [1] has as its target T1, human dopamine D2 receptor (Homo sapiens, UniProt P14416).
T1 construct: accorded to it of human dopamine D2 receptor (NM1-000795) registered on NCBI completely; expressed in transfected cells; membrane homogenates
The assay is described as follows: Stimulating activities on human dopamine D2 receptor, [35S]GTPγS binding to hD2R#7 cell membrane homogenates. The format is biochemical. As to conditions: [35S]GTPγS binding, membrane homogenates of HEK293 cells stably expressing human D2 receptor; mean, n=2; read-out: EC50. As for the experimental part: Identification Test of Stimulating Activities on Human Dopamine D2 Receptor
4) Preparation of Membrane Homogenates from hD2R#7 Cells
(2) Preparation of Membrane Homogenates from hD2R#7 Cells
The cells, which were grown to confluence in 150 mm dishes (IWAKI), were harvested with isotonic buffer (50 mM Tris (Sigma), 2 mM ethylenediamine-tetraacetic acid (Invitrogen), and 125 mM sodium chloride (Wako Pure Chemicals), pH 7.4) and centrifuged at 1880×g and 4° C. for 10 minutes, and the cell pellets were then suspended in isotonic buffer. After being subjected to one cycle of freezing and thawing, the cells were centrifuged at 1880×g and 4° C. for 10 minutes, and the cell pellets were suspended in isotonic buffer. The cells were centrifuged at 1880×g and 4° C. for 10 minutes, and the cell pellets were suspended in isotonic buffer and homogenate buffer (10 mM sodium bicarbonate (Nacalai) and 5 mM ethylenediamine-tetraacetic acid, pH 7.5). The volume ratio of isotonic-to-homogenate buffer was 2. The cells were sonicated and centrifuged at 1880×g and 4° C. for 10 minutes, and the supernatants were ultracentrifuged at 80000×g and 4° C. for 30 minutes. The final cell pellets were suspended in homogenate buffer containing protease inhibitor cocktail (Nacalai) and stored at −80° C. until use. The protein concentration was determined using BCA Protein Assay Kit (Pierce) in accordance with the manufacturer's instructions.
5) Determination of Stimulating Activities of Human Dopamine D2 Receptor
The stimulating activities of human dopamine D2 receptor was determined by measuring the binding potential of [^35S]-guanosine 5′-[gamma-thio]triphosphate ([^35S]GTPγS, PerkinElmer) according to the method described by Newman-Tancredi A. et al. (Naunyn-Schmiedeberg's Arch Pharmacol, 1999, vol. 359, pp. 447-453) with a minor modification. Test compounds and dopamine hydrochloride (Fluka) as positive control were dissolved in dimethyl sulfoxide (CARLBIOCHEM), resulting in 30 mM. The both compounds were diluted with assay buffer (50 mM Tris, 100 mM sodium chloride, 5 mM magnesium chloride (Nacalai), 1 mM ethylenediamine-tetraacetic acid, 1 mM dithiothreitol (Wako Pure Chemicals), 10 μM guanosine diphosphate (Wako Pure Chemicals) and 0.5% bovine serum albumin (Sigma), pH 7.4) to a final concentration of 100 pM (only test compounds), 1 nM, 10 nM, 100 nM, 1 μM, 10 μM and 100 μM (only dopamine hydrochloride). The above membrane homogenates and [^35S]GTPγS were diluted with assay buffer to a final concentration of 0.06 mg/mL and 0.6 nM, respectively. The serial diluted compounds (50 μL), the diluted membrane homogenates (50 μL) and the diluted [^35S]GTPγS (50 μL) were mixed on multi-screen 96-well plate (Millipore) and shaken lightly at room temperature for 60 minutes. The reaction was terminated by vacuum filtration with three times washes of ice-cold wash buffer (50 mM Tris, 100 mM sodium chloride, 5 mM magnesium chloride, and 1 mM ethylenediamine-tetraacetic acid, pH 7.4). After drying the bottoms of the plate at 60° C., MicroScinti-40 (PerkinElmer) (30 μL) was added in the plate. The tops of the plate were sealed by TopSeal-A (PerkinElmer), and the radioactivity was determined in a TopCount NXT (registered mark) (PerkinElmer) after shaking lightly for 5-10 minutes. The data was analyzed by nonlinear regression and sigmoidal dose-response curve fitting using GraphPad PRISM 4.0 (GraphPad Software), and values of EC50 (concentration of the compound producing half the maximal effect of the compound) were calculated. The data was presented as mean value (n=2).

Assay [2] deals with T2, human serotonin 5-HT2B receptor (Homo sapiens, UniProt P41595).
T2 construct: expressed in transfected cells; host or cells: HEK293, transient transfection (Lipofectamine 2000)
T2 sequence (P41595 whole entry): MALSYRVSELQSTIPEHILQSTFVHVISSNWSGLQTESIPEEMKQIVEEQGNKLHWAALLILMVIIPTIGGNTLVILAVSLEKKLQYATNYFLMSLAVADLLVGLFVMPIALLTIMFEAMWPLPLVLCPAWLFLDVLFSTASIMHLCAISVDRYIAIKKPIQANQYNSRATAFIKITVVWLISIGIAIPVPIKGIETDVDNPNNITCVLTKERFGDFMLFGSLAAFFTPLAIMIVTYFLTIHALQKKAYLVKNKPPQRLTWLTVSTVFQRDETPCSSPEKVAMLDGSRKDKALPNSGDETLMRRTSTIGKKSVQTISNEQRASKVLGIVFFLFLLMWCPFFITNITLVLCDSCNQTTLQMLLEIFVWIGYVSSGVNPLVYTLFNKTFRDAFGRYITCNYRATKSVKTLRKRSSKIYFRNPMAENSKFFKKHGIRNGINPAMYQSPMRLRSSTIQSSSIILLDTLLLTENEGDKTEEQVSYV
The experiment in a line: Stimulating activities on human serotonin 5-HT2B receptor, intracellular calcium in forced expression HEK293 cells. The class given is cell-based. As to conditions: intracellular calcium (Fluo-4), HEK293 cells transiently expressing human 5-HT2B receptor; mean, n=2; read-out: EC50. As for the experimental part: Identification Test of Stimulating Activities on Human Serotonin 5-HT2B Receptor
The PCR was performed using forward primer depicted as sequence ID No. 4, reverse primer depicted as sequence ID No. 5 and KOD-Plus-Ver.2 (TOYOBO) as template of human brain hippocampus cDNA (Clontech). The PCR product was inserted into a plasmid (pcDNA3.1/V5-His-Topo (registered mark)). The PCR product-inserted plasmid was transformed in E. coli (One Shot TOP10 Chemically Competent). That E. coli was incubated in LB agar medium contained 50 μg/mL ampicillin for a day. A selected colony was incubated in LB medium contained 50 μg/mL ampicillin and PCR product-inserted plasmid was purified with QIAprep Spin Miniprep Kit (QIAGEN).
Mostly confluent HEK293 cells were washed with PBS, followed by exfoliation with 0.05% trypsin-EDTA and the cells were suspended in D-MEM liquid medium (phenol red-free, low glucose, pyruvic acid were contained) containing fetal bovine serum (final concentration: 10%) and GlutaMax (registered mark)I (final concentration: 2 mM). The suspension was scattered at 5×10^4 cells/100 L/well on poly-D-lysine-coated 96-well microplate (BD BioCoat (registered mark)). The scattered cells were cultured in 5% CO2 incubator at 37° C. Human serotonin 5-HT2B receptor expression plasmid was transfected in that cells according to the procedure seeing below.
Human serotonin 5-HT2B receptor expression plasmid and Lipofectamine (registered mark) 2000 (Invitrogen) were diluted to 0.008 g/L and 0.016 g/L each other with OPTI-MEM (registered mark)I Reduced-Serum Medium and incubated at room temperature. After incubation, the human serotonin 5-HT2B receptor exoression plasmid-diluted liquid and Lipofectamine (registered mark) 2000-diluted liquid were mixed at an equal volume and incubated at room temperature to form a complex. The complex was dispensed at 50 μL/well on the cells prepared above. The cells were incubated in 5% CO2 incubator at 37° C. for 2 days. After incubation, the cells were used as human serotonin 5-HT2B receptor forced expression cells for measurement of intracellular calcium concentration.
3) Determination of Stimulating Activities of Human Serotonin 5-HT2B Receptor
The stimulating activities of human serotonin 5-HT2B receptor was determined by measuring of intracellular calcium concentration. The 30 mM dimethyl sulfoxide (DMSO) solution contained test compounds or serotonin hydrochloride (Sigma) as positive control, was diluted with assay buffer ((HBSS), 20 mM HEPES, 1.3 mM calcium chloride, 0.5 mM magnesium chloride and 0.4 mM magnesium sulfate were contained, pH7.4) to appropriate concentration.
The forced expression cells were washed with assay buffer, and 100 μL/well of fluorescent calcium indicator (Fluo-4 NW Calcium Assay Kit) was added and incubated in 5% CO2 incubator at 37° C. After incubation, 50 μL/well of each test compound was added, and the concentration of intracellular calcium was measured as fluorescent signal with FlexStation (registered mark) II (Molecular Devices). The data was analyzed by nonlinear regression and sigmoidal dose-response curve fitting using GraphPad PRISM 4.0, and values of EC50 (concentration of the compound producing half the maximal effect of the compound) were calculated. The data was presented as mean value (n=2).
For orientation: Calcium assays in cells follow changes in intracellular calcium, usually with a dye or a luminescent sensor.

The test system of assay [3] is unilateral 6-OHDA-lesioned hemi-Parkinsonian rats. The assay is described as follows: Contralateral rotational behavior in unilateral 6-hydroxydopamine-lesioned hemi-parkinsonian rats. The format is in vivo, rat (male Sprague-Dawley). As to conditions: 10 mg/kg oral, fasted rats, observed up to 24 hours, mean. On the procedure:
6-OHDA was dissolved at 2 mg/mL in a physiolosical saline solution containing 0.2% L-ascorbic acid. Desipramine was dissolved at 10 mg/mL in a physiolosical saline solution in a hot-water bath. Apomorphine was dissolved at 0.1 mg/mL in a physiolosical saline solution. […] Test compounds were dissolved in a solution containing 2% DMA, 100 or 200 mol % hydrochloric acid, and 98% of a 0.5% methyl cellulose solution. […] (Eur J Pharmacol, 2000, vol. 408, P. 249-255) with a minor modification. Male Sprague-Dawley rats (6-weeks-old, Charles River Laboratories Japan Inc.) were anaesthetized with intraperitoneal somnopentyl (45 mg/kg) injection and placed in a stereotaxic frame (Narishige). In order to prevent 6-OHDA-induced damage of noradrenergic neurons, desipramine (25 mg/kg) was intraperitoneally injected 30 minutes before the 6-OHDA injection. After the bregma identification via a middle calvarial incision, the skull was drilled using a dental drill at the site of 6-OHDA injection. The lesion was made by injecting 6-OHDA (8 μg in 4 μL at a speed of 1 μL/minute) unilaterally into the left medial forebrain bundle by using a injection cannula (30 gauge needle) connected to a microsyringe (Hamilton) (the lesion coordinates; A/P −2.5 mm, L/M −1.8 mm, and V/D −8.0 mm, from the bregma point and surface of the skull). The cannula was carefully removed from the animal after keeping placed on the lesion site for 5 minutes. The skull was filled its hole with dental cement, disinfected, and the scalp incision was surgically sutured. Animals recovered from anesthesia were housed as usual until the day of the experiment. 3) Determining of Contralateral Rotational Behavior Three weeks after the lesion, rats were tested on the basis of their contralateral rotational behavior (single rotation was defined as a 360° turn) in response to 0.1 mg/kg apomorphine given subcutaneously. For behavioral observation, rats were placed in plastic cylinders of a diameter of 30 cm, and its contralateral rotational behaviors were videotaped and quantified by rat-rotation auto counting system R-RACS (Kissei Wellcom). On the experimental day, animals were fasted overnight, and test compounds were orally administrated at doses of 10 mg/kg. […] Total number of rotations and the duration of the response in experimental period were presented as mean value.

T1 sequence (P14416 whole entry): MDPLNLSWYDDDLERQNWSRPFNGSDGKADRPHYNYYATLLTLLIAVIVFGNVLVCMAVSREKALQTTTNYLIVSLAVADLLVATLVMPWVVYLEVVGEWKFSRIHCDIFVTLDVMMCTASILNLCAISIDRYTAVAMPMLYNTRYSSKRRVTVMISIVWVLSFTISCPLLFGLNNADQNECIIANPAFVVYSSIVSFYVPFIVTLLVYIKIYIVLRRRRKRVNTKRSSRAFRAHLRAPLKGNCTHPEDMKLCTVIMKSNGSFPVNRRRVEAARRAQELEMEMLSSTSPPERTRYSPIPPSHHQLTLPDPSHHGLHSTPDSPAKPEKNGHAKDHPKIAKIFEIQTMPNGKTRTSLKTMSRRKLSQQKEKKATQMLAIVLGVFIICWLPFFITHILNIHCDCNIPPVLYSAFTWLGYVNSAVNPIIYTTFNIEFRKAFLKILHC

Turning to `CN(C)CCNC(=O)N(CCc1ccccc1)C(=O)[C@@H]1C[C@@H]2Cc3c(sc(N)c3C#N)C[C@H]2N(C)C1` (relative stereo) [1-30, 1-{[(4aR*,6R*,8aR*)-2-amino-3-cyano-8-methyl-4H,4aH,5H,6H,7H,8H,8aH,9H-thieno[3,2-g]quinolin-6-yl]carbonyl}-3-[2-(dimethylamino)ethyl]-1-(2-phenylethyl)urea], the EC50 in assay [1] was 4 nM; in assay [2], > 10 µM.
On to `CCCN(C(=O)NCC(C)(C)N(C)C)C(=O)[C@@H]1C[C@@H]2Cc3c(sc(N)c3C#N)C[C@H]2N(C)C1` (relative stereo) [1-82, 1-{[(4aR*,6R*,8aR*)-2-amino-3-cyano-8-methyl-4H,4aH,5H,6H,7H,8H,8aH,9H-thieno[3,2-g]quinolin-6-yl]carbonyl}-3-[2-(dimethylamino)-2-methylpropyl]-1-propylurea], for which the EC50 in assay [1] was 13 nM; in assay [2] it was > 10 µM.
Consider `CCN(C(=O)NCC(CC)(CC)N(C)C)C(=O)[C@@H]1C[C@@H]2Cc3c(sc(N)c3C#N)C[C@H]2N(C)C1` [1-107, 1-{[(4aR,6R,8aR)-2-amino-3-cyano-8-methyl-4H,4aH,5H,6H,7H,8H,8aH,9H-thieno[3,2-g]quinolin-6-yl]carbonyl}-3-[2-(dimethylamino)-2-ethylbutyl]-1-ethylurea], for which the EC50 in assay [2] was > 10 µM. Moreover, the “Total number or rotations” value in assay [3] (contralateral rotations) worked out at 4033.3. The molecule also gave a Duration in assay [3] (duration of contralateral rotation response) of 1068.3 min.
With `CCCN(C(=O)NC1CN(C)C1)C(=O)[C@@H]1C[C@@H]2Cc3c(sc(N)c3C#N)C[C@H]2N(C)C1` [1-99], the results for the 50% effective concentration (EC50) in assay [1] and in assay [2] were 8 nM and > 10 µM, respectively.
For the molecule `CCN(C(=O)NC)C(=O)[C@@H]1C[C@@H]2Cc3c(sc(N)c3C#N)C[C@H]2N(C)C1` [1-23], the EC50 in assay [1] is 8 nM; in assay [2], > 10 µM.
Consider `CCN(C(=O)NC(C)(C)CN(C)C)C(=O)[C@@H]1C[C@@H]2Cc3c(sc(N)c3C#N)C[C@H]2N(C)C1` [1-106, 1-{[(4aR,6R,8aR)-2-amino-3-cyano-8-methyl-4H,4aH,5H,6H,7H,8H,8aH,9H-thieno[3,2-g]quinolin-6-yl]carbonyl}-3-[1-(dimethylamino)-2-methylpropan-2-yl]-1-ethylurea], for which the values for the EC50 in assay [1] and in assay [2] were 4 nM and > 10 µM, respectively.
